Key:
HDAC = test: In vitro fluorescent histone deacetylase assay (Biomol HDAC fluorescent activity kit, HeLa cell nuclear extract); type: biochemical; conditions: 100 μM compound; HeLa cell nuclear extract as source of HDAC activity; 50 μM substrate, 10 min at room temperature
Method in brief: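 HeLa nuclear extract as HDAC source with fluorogenic substrate at 50 μM final, reacting 10 min at room temperature before stop. Compounds serially diluted in assay buffer, final DMSO ≤2%; fluorescence read at ex 355 nm / em 460 nm.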

HCT116 cells = test: Whole cell cytotoxicity assay: Sulforhodamine B; type: cell-based; conditions: Homo sapiens, HCT-116; 100 μM compound; 48 hours incubation with drug; Sulforhodamine B staining; read-out: % Inhibition of HCT116 cell growth @ 100 μM

`Cn1c2c(c3ccccc31)CCN(c1ncc(C(=O)NO)cn1)C2` [Example 27, N-hydroxy-2-(9-methyl-1,3,4,9-tetrahydro-2H-b-carbolin-2-yl)pyrimidine-5-carboxamide] was tested, and the “% Inhibition of HDAC @ 100 μM” value (HDAC) was 98.3% and the inhibition at 100 µM (HCT116 cells) was 98.9%.

In the case of `Cc1cccc2c3c([nH]c12)CN(c1ncc(C(=O)NO)cn1)CC3` [Example 61, N-hydroxy-2-(8-methyl-1,3,4,9-tetrahydro-2H-b-carbolin-2-yl)pyrimidine-5-carboxamide], the “% Inhibition of HDAC @ 100 μM” value (HDAC) is reported as 99.9% and the inhibition at 100 µM (HCT116 cells) is reported as 98.2%.

— patent US7772245B2, “Inhibitors of histone deacetylase” (Miikana Therapeutics, Inc., priority 2005, dated 2010)
